Data taken from article PMC6213879, “Synthesis and Biological Evaluation of Novel Dehydroabietic Acid-Oxazolidinone Hybrids for Antitumor Properties” (International Journal of Molecular Sciences, 2018).

What was measured:
[1] = system: NCI-H460 human lung cancer cell line; test: MTT cytotoxicity assay, NCI-H460; format: cell-based; details: Homo sapiens, NCI-H460, 48 h, mean ± SD from three independent experiments
Experimental: (§1) The in vitro antiproliferative activity of the DHAA derivatives 3a–o and 4a–o against four human cancer cell lines (MGC-803 human gastric cancer cell line, CNE-2 human nasopharyngeal carcinoma cell line, SK-OV-3 human ovarian carcinoma cell line, NCI-H460 human lung cancer cell line) and the human normal liver cell line LO2 were evaluated by MTT (methyl thiazolytetrazolium) assay and compared with the parent compound DHAA and the positive control cisplatin in each panel.
(§2) The cytotoxicity of the compounds was evaluated against NCI-H460, MGC-803, SK-OV-3, CNE-2 and LO2 using an MTT assay. Cells were grown on 96-well micro-plates at a density of 4 × 10^3 cells per well in DMEM (dulbecco’s modified eagle medium) medium with 10% FBS (fetal bovine serum). The plates were incubated at 37 °C with 5% CO2. The cells were then exposed to different concentrations of target compounds and cisplatin and incubated for another 48 h. Control wells were formed by culture media with the maximum concentration of DMSO used in each assay (1‰). The cells were stained with 20 µL of MTT in an incubator for about 4 h. The medium was thrown away and replaced by […] DMSO. The absorbance (OD) value was read at 490 nm on an enzyme labeling instrument. Each experiment was repeated at least three times to obtain the mean values.

[2] = system: human normal liver cell line LO2; test: MTT cytotoxicity assay, normal LO2 cells; format: cell-based; details: Homo sapiens, L02, 48 h, mean ± SD from three independent experiments
Experimental: as §1, §2

[3] = system: CNE-2 human nasopharyngeal carcinoma cell line; test: MTT cytotoxicity assay, CNE-2; format: cell-based; details: Homo sapiens, CNE-2, 48 h, mean ± SD from three independent experiments
Experimental: as §1, §2

[4] = system: MGC-803 human gastric cancer cell line; test: MTT cytotoxicity assay, MGC-803; format: cell-based; details: Homo sapiens, MGC-803, 48 h, mean ± SD from three independent experiments
Experimental: as §1, §2

[5] = system: SK-OV-3 human ovarian carcinoma cell line; test: MTT cytotoxicity assay, SK-OV-3; format: cell-based; details: Homo sapiens, SK-OV-3, 48 h, mean ± SD from three independent experiments
Experimental: as §1, §2

[6] = system: MGC-803, CNE-2, SK-OV-3, NCI-H460; test: MTT cytotoxicity assay, summary over the four cancer cell lines; format: cell-based; details: Homo sapiens; range over MGC-803, CNE-2, SK-OV-3, NCI-H460; read-out: IC50 values ranging against all the test cell lines
Experimental: as §1, §2

MGC-803 cells [7] = test: Hoechst 33258 staining assay; format: cell-based, human; details: 48 h
Experimental: Hoechst 33258 is a dye that is utilized to identify the transitions of a cell’s nuclear morphology. To determine the morphological changes induced by compound 4j in MGC-803 cells, Hoechst 33258 staining was carried out. MGC-803 cells were treated with various concentrations (0, 1.0, 5.0, 10 µM) of compound 4j for 48 h, and stained with Hoechst 33258.
Cells grown on a sterile cover slip in six-well plates were treated with different concentrations of the test compound for 48 h. The culture medium containing compounds was removed, and the cells were fixed in 4% paraformaldehyde for 10 min. After being washed twice with PBS, the cells were stained with 0.5 mL of Hoechst 33258 (Beyotime, Shanghai, China) for 5 min, and then again washed twice with PBS. The stained nuclei were observed under an OLYMPUS 1X73 fluorescence microscope using 350 nm for excitation and 460 nm for emission.

MGC-803 cells [8] = test: Apoptosis analysis, Annexin-V/FITC and PI, flow cytometry; format: cell-based, human; details: 48 h, control 9.3%
Experimental: In order to further confirm whether the 4j-induced reduction in cell viability was responsible for the induction of apoptosis, MGC-803 cells were investigated using the PI and Annexin-V/FITC (fluorescein isothiocyanate) and the number of apoptotic cells was estimated by flow cytometry, after the treatment of the MGC-803 cells at concentrations of 5 and 10 µM for 48 h. The results are illustrated in Figure 2.
MGC-803 cells were seeded at a concentration of 2 × 10^6 cells/mL of the DMEM medium with 10% FBS on 6-well plates to the final volume of 2 mL, and then treated with compound 4j at different concentrations for 48 h. After 48 h, the cells were collected and washed twice with PBS and then resuspended in 100 µL 1 × binding buffer, The cells were subjected to 5 µL of FITC Annexin V and 5 µL propidium iodide (PI) staining using an annexin-V FITC apoptosis kit (BD, Pharmingen) and incubated for 30 min at RT (25 °C) in the dark. Then, 100µL 1× binding buffer were added. The apoptosis ratio was quantified by system software (Cell Quest; BD Biosciences, Becton Dickinson FACSAriaIII, NY, USA).

MGC-803 cells [9] = test: Cell cycle analysis by PI staining and flow cytometry; format: cell-based, human; details: MGC-803, 48 h
Experimental: To determine the possible role of cell cycle arrest in 4j-induced growth inhibition, MGC-803 cells were treated with different concentrations of compound 4j for 48 h. The cell cycle distribution was investigated by flow cytometric analysis following the staining of DNA with propidium iodide (PI).
The MGC-803 cell line was treated with different concentrations of compound 4j. After 48 h of incubation, cells were washed twice with ice-cold PBS, fixed and permeabilized with ice-cold 70% ethanol at −20 °C overnight. The cells were treated with 100 µg /mL RNase A at 37 °C for 30 min, after being washed with ice-cold PBS, and finally stained with 1 mg/mL propidium iodide (PI) (BD, Pharmingen) in the dark at 4 °C for 30 min. Analysis was performed with the system software (Cell Quest; BD Biosciences, Becton Dickinson FACSAriaIII, NY, USA).

SMILES	IC50 [1] [µM]	IC50 [2] [µM]	IC50 [3] [µM]	IC50 [4] [µM]	IC50 [5] [µM]	IC50 [6] [µM]	nuclear morphological changes (Hoechst 33258) (MGC-803 cells [7]; 10.0 µM)	nuclear morphological changes (Hoechst 33258) (MGC-803 cells [7]; 1.0 and 5.0 µM)	percentage of all apoptotic cells (early and late) (MGC-803 cells [8]; 5 µM) [%]	percentage of all apoptotic cells (early and late) (MGC-803 cells [8]; 10 µM) [%]	cell cycle arrest (MGC-803 cells [9])	melting point [°C]
COc1cccc(N2CC(COC(=O)[C@]3(C)CCC[C@]4(C)c5ccc(C(C)C)cc5CCC34)OC2=O)c1 (stereo partly drawn) [Compound 4f, (1R,4aS)-(3-(3-Methoxyphenyl)-2-Oxooxazolidin-5-yl)Methyl-7-Isopropyl-1,4a-Dimethyl-1,2,3,4,4a,9,10,10a-Octahydrophenanthrene-1-Carboxylate]	17.2 ± 1.38	> 100	23.5 ± 1.2	19.7 ± 2.8	43 ± 1.05							
COc1ccc(N2CC(COC(=O)[C@]3(C)CCC[C@]4(C)c5ccc(C(C)C)cc5CCC34)OC2=O)cc1 (stereo partly drawn) [Compound 4g, (1R,4aS)-(3-(4-Methoxyphenyl)-2-Oxooxazolidin-5-yl)Methyl-7-Isopropyl-1,4a-Dimethyl-1,2,3,4,4a,9,10,10a-Octahydrophenanthrene-1-Carboxylate]	14.1 ± 8.04	26.36 ± 0.15	19.8 ± 0.3	6.1 ± 0.35	4.1 ± 2.45							
CC(C)c1ccc2c(c1)CCC1[C@](C)(C(=O)OCC3CN(c4ccccc4F)C(=O)O3)CCC[C@]21C (stereo partly drawn) [Compound 4h, (1R,4aS)-(3-(2-Fluorophenyl)-2-Oxooxazolidin-5-yl)Methyl-7-Isopropyl-1,4a-Dimethyl-1,2,3,4,4a, 9,10,10a-Octahydrophenanthrene-1-Carboxylate]	> 100	> 100	> 100	49.9 ± 1.14	> 100							
CC(C)c1ccc2c(c1)CCC1[C@](C)(C(=O)OCC3CN(c4cccc(F)c4)C(=O)O3)CCC[C@]21C (stereo partly drawn) [Compound 4i, (1R,4aS)-(3-(3-Fluorophenyl)-2-Oxooxazolidin-5-yl)Methyl-7-Isopropyl-1,4a-Dimethyl-1,2,3,4,4a, 9,10,10a-Octahydrophenanthrene-1-Carboxylate]	25.1 ± 4.5	> 100	28 ± 3.95	11.5 ± 0.25	9.86 ± 4.3							
CC(C)c1ccc2c(c1)CCC1[C@](C)(C(=O)OCC3CN(c4ccc(F)cc4)C(=O)O3)CCC[C@]21C (stereo partly drawn) [Compound 4j, (1R,4aS)-(3-(4-Fluorophenyl)-2-Oxooxazolidin-5-yl)Methyl-7-Isopropyl-1,4a-Dimethyl-1,2,3,4,4a,9,10,10a-Octahydrophenanthrene-1-Carboxylate]	8.44 ± 0.36	> 100	17.8 ± 4.69	3.82 ± 0.18	4.66 ± 2.13	3.82 to 17.8	number of apoptotic nuclei significantly increased	some exhibited bright-blue fluorescence due to chromatin condensation	28.5	34.3	mainly arrested the MGC-803 cells in the G1 phase	112.8 to 117.5
CC(C)c1ccc2c(c1)CCC1[C@](C)(C(=O)OCC3CN(c4cccc(Cl)c4)C(=O)O3)CCC[C@]21C (stereo partly drawn) [Compound 4k, (1R,4aS)-(3-(3-Chlorophenyl)-2-Oxooxazolidin-5-yl)Methyl-7-Isopropyl-1,4a-Dimethyl-1,2,3,4,4a,9,10,10a-Octahydrophenanthrene-1-Carboxylate]	23 ± 2.62	37.2 ± 3.14	31.2 ± 2.5	7.43 ± 1.42	10.3 ± 5.46							
